The values below come from ChEMBL document CHEMBL1136971, “Nascent structure-activity relationship study of a diastereomeric series of kappa opioid receptor antagonists derived from CJ-15,208” (Bioorg Med Chem Lett, 2009).

Square brackets hold non-standard residues; d marks the D form. Peptide text beside a SMILES is read from it. Some results are limits rather than exact numbers.

The species named for assay [1] is Homo sapiens. Nature of the assay: Ratio of Ki for human cloned mu opioid receptor to Ki for human cloned kappa opioid receptor.
The target of assay [2] is T1, Kappa-type opioid receptor (Homo sapiens, UniProt P41145). Description: Displacement of [3H]diprenorphine from human cloned kappa opioid receptor by cell based assay. For orientation: In a radioligand displacement assay an active substance lowers the binding of a labelled ligand.
Assay [3] concerns the target T1, Kappa-type opioid receptor. Nature of the assay: Antagonist activity at human cloned kappa opioid receptor assessed as inhibition of 50 nM U50488H-stimulated GTPgammaS binding by cell based assay. Type of assay: functional.
Assay [4] deals with T2, Mu-type opioid receptor (Homo sapiens, UniProt P35372). Nature of the assay: Displacement of [3H]diprenorphine from human cloned mu receptor by cell based assay.
The target of assay [5] is T2, Mu-type opioid receptor. Nature of the assay: Antagonist activity at human cloned mu opioid receptor assessed as inhibition of 100 nM loperamide-stimulated GTPgammaS binding by cell based assay. Type of assay: functional.
Assay [6] addresses Delta-type opioid receptor (Homo sapiens, UniProt P41143). Description: Displacement of [3H]diprenorphine from human cloned delta receptor by cell based assay.
A short description of assay [7]: Antagonist activity at kappa opioid receptor in rabbit vas deferens assessed as reversal of asimadoline-suppressed electrically-stimulated twitch response. Type of assay: functional, tissue-based. Conditions: Oryctolagus cuniculus.
A short description of assay [8]: Binding affinity to delta opioid receptor in guinea pig brain membrane. Type of assay: cell membranes, Cavia porcellus.
The target in assay [9] is Mu-type opioid receptor (Cavia porcellus, UniProt P97266). Description: Binding affinity to mu opioid receptor in guinea pig brain membrane. Type of assay: cell membranes.
In assay [10] the target is Kappa-type opioid receptor (Cavia porcellus, UniProt P41144). Description: Binding affinity to kappa opioid receptor in guinea pig brain membrane. Type of assay: cell membranes.
Kappa-type opioid receptor (Cavia porcellus, UniProt P41144), sequence (P41144 whole entry): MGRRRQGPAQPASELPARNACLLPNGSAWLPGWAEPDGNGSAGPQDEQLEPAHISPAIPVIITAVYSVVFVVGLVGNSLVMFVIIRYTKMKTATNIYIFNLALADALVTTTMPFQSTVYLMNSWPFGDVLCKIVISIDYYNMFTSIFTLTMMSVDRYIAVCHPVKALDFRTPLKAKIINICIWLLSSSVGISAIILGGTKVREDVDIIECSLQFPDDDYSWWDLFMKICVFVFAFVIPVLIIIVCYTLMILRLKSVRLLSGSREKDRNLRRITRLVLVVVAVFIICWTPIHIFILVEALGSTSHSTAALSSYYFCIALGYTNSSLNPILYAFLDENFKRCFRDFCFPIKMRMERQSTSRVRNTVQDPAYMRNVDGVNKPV

T2 sequence (P35372 whole entry): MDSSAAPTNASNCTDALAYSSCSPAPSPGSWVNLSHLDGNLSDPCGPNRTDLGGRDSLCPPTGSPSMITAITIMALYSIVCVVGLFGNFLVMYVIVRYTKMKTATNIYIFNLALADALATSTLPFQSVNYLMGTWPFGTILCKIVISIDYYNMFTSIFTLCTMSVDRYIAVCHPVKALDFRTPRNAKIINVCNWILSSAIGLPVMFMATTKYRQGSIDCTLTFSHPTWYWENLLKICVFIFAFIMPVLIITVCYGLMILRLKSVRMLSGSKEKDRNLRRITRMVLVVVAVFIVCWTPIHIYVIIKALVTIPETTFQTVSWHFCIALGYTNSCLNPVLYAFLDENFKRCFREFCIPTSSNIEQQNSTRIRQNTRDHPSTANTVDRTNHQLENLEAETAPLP
Delta-type opioid receptor, sequence (P41143 whole entry): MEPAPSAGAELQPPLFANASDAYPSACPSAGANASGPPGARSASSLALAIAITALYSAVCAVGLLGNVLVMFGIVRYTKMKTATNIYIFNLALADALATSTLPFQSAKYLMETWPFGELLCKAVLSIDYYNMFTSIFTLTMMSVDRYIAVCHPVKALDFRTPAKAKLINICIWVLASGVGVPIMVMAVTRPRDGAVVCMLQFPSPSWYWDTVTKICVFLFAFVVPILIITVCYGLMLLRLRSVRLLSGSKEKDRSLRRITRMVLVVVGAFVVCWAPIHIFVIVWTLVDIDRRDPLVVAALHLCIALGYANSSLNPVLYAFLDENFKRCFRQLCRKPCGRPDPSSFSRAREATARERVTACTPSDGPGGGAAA
T1 sequence (P41145 whole entry): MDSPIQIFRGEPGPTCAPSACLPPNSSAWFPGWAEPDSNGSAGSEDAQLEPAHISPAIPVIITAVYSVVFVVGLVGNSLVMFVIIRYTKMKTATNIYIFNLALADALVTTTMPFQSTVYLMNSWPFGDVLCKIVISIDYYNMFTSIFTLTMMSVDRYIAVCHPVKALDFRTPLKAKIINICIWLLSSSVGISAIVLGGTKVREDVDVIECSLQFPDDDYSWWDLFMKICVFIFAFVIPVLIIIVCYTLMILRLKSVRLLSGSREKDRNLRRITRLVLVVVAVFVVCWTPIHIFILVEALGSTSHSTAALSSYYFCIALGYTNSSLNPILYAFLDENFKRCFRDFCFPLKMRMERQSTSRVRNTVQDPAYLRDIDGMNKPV
Mu-type opioid receptor (Cavia porcellus, UniProt P97266), sequence (P97266 whole entry): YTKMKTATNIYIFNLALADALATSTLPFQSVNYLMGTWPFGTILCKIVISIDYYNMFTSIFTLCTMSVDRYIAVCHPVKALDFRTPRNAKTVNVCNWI

As for `C[C@@H]1NC(=O)[C@@H](Cc2c[nH]c3ccccc23)NC(=O)[C@H](Cc2ccccc2)NC(=O)[C@H]2CCCN2C1=O` (cyclo(A[dP]F[dW])), the Ratio Ki in [1] was 4.2. Besides, the Ki in assay [2] is 5.2 nM; in assay [4], 22 nM; in assay [6] it was > 1000 nM. Further, the IC50 in [3] is 5 nM; in assay [5], 48 nM.
With `O=C1N[C@@H](Cc2ccccc2)C(=O)N2CCC[C@@H]2C(=O)N[C@@H](Cc2ccccc2)C(=O)N[C@H]1Cc1c[nH]c2ccccc12` (cyclo(FWF[dP])), the EC50 in assay [7] amounted to 1300 nM. The Ratio Ki in [1] was determined as 4.5. In addition, the Ki in assay [2] came out at 29 nM; in assay [4], 130 nM; in [6], 2000 nM. Moreover, the IC50 in assay [8] turned out to be 2600 nM; in assay [3], 440 nM; in assay [9] it was 260 nM; in [10], 47 nM; in assay [5], 25 nM.
`CC(=O)N[C@@H](Cc1ccccc1)C(=O)N1CCC[C@@H]1C(=O)N[C@@H](Cc1ccccc1)C(=O)N[C@H](Cc1c[nH]c2ccccc12)C(N)=O`: the Ki in [2], in assay [4] and in [6] was > 1000 nM throughout.
In the case of `CC(=O)N[C@H](Cc1c[nH]c2ccccc12)C(=O)N[C@@H](Cc1ccccc1)C(=O)N1CCC[C@@H]1C(=O)N[C@@H](Cc1ccccc1)C(N)=O`, the Ki in [2], in [4] and in assay [6] was > 1000 nM each time.
Take `O=C1N[C@H](Cc2c[nH]c3ccccc23)C(=O)N[C@@H](Cc2ccccc2)C(=O)N2CCC[C@@H]2C(=O)N[C@H]1Cc1ccccc1` (cyclo(F[dP]F[dW])): the Ratio Ki in assay [1] was 7.9. Further, the Ki in assay [2] was 3.8 nM; in assay [4] it was 30 nM; in [6], > 1000 nM. For the same molecule, the results for the concentration for half-maximal inhibition (IC50) in assay [3] and in assay [5] were 140 nM and 21 nM, respectively.
Turning to `O=C1N[C@H](Cc2c[nH]c3ccccc23)C(=O)N[C@@H](Cc2ccc(O)cc2)C(=O)N2CCC[C@@H]2C(=O)N[C@H]1Cc1ccccc1`, the Ki in assay [2] was 220 nM; in [6], > 1000 nM.
In the case of `CC(=O)n1cc(C[C@H](N)C(=O)N[C@@H](Cc2ccccc2)C(=O)N2CCC[C@@H]2C(=O)N[C@@H](Cc2ccccc2)C(N)=O)c2ccccc21`, the inhibitory constant (Ki) in assay [2], in assay [4] and in assay [6] was > 1000 nM throughout.
With `O=C1N[C@H](Cc2c[nH]c3ccccc23)C(=O)NCC(=O)N2CCC[C@@H]2C(=O)N[C@H]1Cc1ccccc1`, the Ratio Ki in assay [1] was 2.8. The Ki is 270 nM in assay [2], 770 nM in assay [4] and > 1000 nM in [6].
`CC(=O)N1CCC[C@@H]1C(=O)N[C@@H](Cc1ccccc1)C(=O)N[C@H](Cc1c[nH]c2ccccc12)C(=O)N[C@@H](Cc1ccccc1)C(N)=O`: the Ki in assay [2] is > 1000 nM; in assay [4], 340 nM; in assay [6] it was > 1000 nM.
As to `CC(=O)N1CCC[C@@H]1C(=O)N[C@@H](Cc1ccccc1)C(=O)N[C@@H](Cc1c[nH]c2ccccc12)C(=O)N[C@@H](Cc1ccccc1)C(N)=O`, the inhibition constant (Ki) in assay [2], in assay [4] and in [6] was > 1000 nM each time.
Take `COc1ccc(C[C@@H]2NC(=O)[C@H]3CCCN3C(=O)[C@H](Cc3ccccc3)NC(=O)[C@@H](Cc3c[nH]c4ccccc34)NC2=O)cc1`: the Ratio Ki in assay [1] was determined as 3.1. Moreover, the figures for the Ki in [2], in assay [4] and in assay [6] were 14 nM, 43 nM and > 1000 nM, respectively.
`C[C@H]1NC(=O)[C@H](Cc2ccccc2)NC(=O)[C@H]2CCCN2C(=O)[C@H](Cc2ccccc2)NC1=O`: the Ki in assay [2], in assay [4] and in assay [6] was > 1000 nM each time.
With `O=C1N[C@H](Cc2c[nH]c3ccccc23)C(=O)N[C@@H](Cc2ccccc2)C(=O)N2CCC[C@@H]2C(=O)N[C@H]1Cc1ccc(O)cc1`, the Ratio Ki in assay [1] was 0.85. Besides, the Ki was 140 nM in [2], 120 nM in assay [4] and > 1000 nM in assay [6].
For `O=C1N[C@H](Cc2c[nH]c3ccccc23)C(=O)N[C@@H](Cc2cccc(O)c2)C(=O)N2CCC[C@@H]2C(=O)N[C@H]1Cc1ccccc1`, the Ratio Ki in assay [1] stood at 0.47. For the same molecule, the inhibitory constant (Ki) in assay [2] stood at 78 nM; in assay [4], 37 nM; in assay [6], 670 nM.
Take `CC(=O)N[C@@H](Cc1ccccc1)C(=O)N1CCC[C@@H]1C(=O)N[C@@H](Cc1ccccc1)C(=O)N[C@@H](Cc1c[nH]c2ccccc12)C(N)=O`: the Ki in [2], in [4] and in [6] was > 1000 nM each time.
`CC(=O)N[C@@H](Cc1ccccc1)C(=O)N[C@@H](Cc1c[nH]c2ccccc12)C(=O)N[C@@H](Cc1ccccc1)C(=O)N1CCC[C@@H]1C(N)=O`: the Ki in assay [2], in [4] and in [6] was > 1000 nM each time.
Consider `O=C1N[C@H](Cc2c[nH]c3ccccc23)C(=O)N[C@@H](Cc2ccccc2)C(=O)N2CCC[C@@H]2C(=O)N[C@H]1Cc1cccc(O)c1`, for which the Ratio Ki in [1] was found to be 2. Moreover, the Ki in assay [2] is 20 nM; in assay [4] it was 40 nM; in assay [6], 3400 nM.
With `C[C@@H]1NC(=O)[C@H]2CCCN2C(=O)[C@H](Cc2ccccc2)NC(=O)[C@@H](Cc2c[nH]c3ccccc23)NC1=O` (cyclo(A[dW]F[dP])), in assay [1], the Ratio Ki worked out at 1.7. For the same molecule, the figures for the inhibitory constant (Ki) in [2], in [4] and in assay [6] were 1300 nM, 2200 nM and > 1000 nM, respectively.
The matching figures for `O=C1N[C@H](Cc2c[nH]c3ccccc23)C(=O)N[C@@H](Cc2ccc(F)cc2)C(=O)N2CCC[C@@H]2C(=O)N[C@H]1Cc1ccccc1`: 7.5, 28 nM, 210 nM and > 1000 nM.
For `CC(=O)N[C@@H](Cc1ccccc1)C(=O)N[C@H](Cc1c[nH]c2ccccc12)C(=O)N[C@@H](Cc1ccccc1)C(=O)N1CCC[C@@H]1C(N)=O`, the Ki in assay [2] was > 1000 nM; in assay [4], 360 nM; in assay [6], > 1000 nM.
In the case of `O=C1N[C@H](Cc2c[nH]c3ccccc23)C(=O)N[C@@H](Cc2ccccc2)C(=O)N2CCC[C@@H]2C(=O)N[C@H]1Cc1ccc(F)cc1`, the Ratio Ki in assay [1] amounted to 2.3. The Ki in assay [2] was 21 nM; in assay [4] it was 48 nM; in assay [6] it was > 1000 nM.
The matching figures for `COc1ccc(C[C@@H]2NC(=O)[C@@H](Cc3c[nH]c4ccccc34)NC(=O)[C@H](Cc3ccccc3)NC(=O)[C@H]3CCCN3C2=O)cc1`: 2.6, 66 nM, 170 nM and > 1000 nM.

In general, Ki refers to the dissociation constant of the complex between target and ligand, obtained from inhibition or displacement. Low readings indicate higher affinity, high ones lower affinity. For orientation: IC50 means the concentration at which inhibition is half-maximal. The term EC50 denotes the concentration at which the effect is half-maximal.
